In patent US11396504B2, “Alkoxybenzo-five-membered (six-membered) heterocyclic amine compound and pharmaceutical use thereof” (FUDAN UNIVERSITY, priority 2018, dated 2022):

Tests used:
[1] = target: T1, Sphingomyelin Synthase 1 (SMS1 pure enzyme) (Homo sapiens, UniProt Q86VZ5); assay: In vitro SMS1 pure enzyme inhibition, HPLC fluorogenic quantitative detecting method; assay type: biochemical
T1 construct: Yu, Cao research group of National Protein Science Center (Shanghai)
T1 sequence (Q86VZ5 1-413): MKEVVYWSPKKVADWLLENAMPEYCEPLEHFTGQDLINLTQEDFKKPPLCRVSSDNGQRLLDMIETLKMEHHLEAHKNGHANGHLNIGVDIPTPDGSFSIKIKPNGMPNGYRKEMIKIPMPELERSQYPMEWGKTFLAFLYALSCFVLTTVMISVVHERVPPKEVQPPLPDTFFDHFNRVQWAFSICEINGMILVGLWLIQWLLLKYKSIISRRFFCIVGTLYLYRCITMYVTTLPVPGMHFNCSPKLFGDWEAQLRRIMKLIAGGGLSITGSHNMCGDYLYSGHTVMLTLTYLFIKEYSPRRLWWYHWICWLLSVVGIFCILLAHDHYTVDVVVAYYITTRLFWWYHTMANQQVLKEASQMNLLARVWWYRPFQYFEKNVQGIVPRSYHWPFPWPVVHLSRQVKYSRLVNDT
Description: Referring to the above SMS2 inhibitory activity detection method, and using SMS1 pure enzyme instead of SMS2 pure enzyme for corresponding operation.
(§1) Using the same HPLC fluorogenic quantitative detecting method as reference (Xiaodong Deng; Hong Sun; et al. Analytical Letters, 2012, 45:12, 1581-1589) to analyses samples obtained above. Analysize and record peak areas of C6-NBD-SM (Asm) and C6-NBD-Ceramide (Acer) of each sample from blank group, positive control group (compound D2) and under tested compound group. Calculate inhibition rate from the formula below: […]
Part 4. Determination of SMS1 Median Inhibitory Concentration (IC50) and SMS1 Single Concentration (50 μM) Inhibitory Concentration of Alkoxybenzeno Five- or Six-Member Heterocyclic Amines (Scheme I-1˜I-38)
The experiment can be carried out with the corresponding concentration according to the operation similar to the determination of the median inhibitory concentration (IC50) of SMS2.

[2] = target: T2, Sphingomyelin Synthase 2 (SMS2 pure enzyme) (Homo sapiens, UniProt Q8NHU3); assay: In vitro SMS2 pure enzyme inhibition, HPLC fluorogenic quantitative detecting method (C6-NBD-Ceramide to C6-NBD-SM); assay type: biochemical; settings: for IC50: SMS2 pure enzyme, five concentrations, three parallel groups, experimental value; for Selectivity ratio: SMS1 IC50 relative to SMS2 IC50
T2 construct: Yu, Cao research group of National Protein Science Center (Shanghai)
T2 sequence (Q8NHU3 1-365): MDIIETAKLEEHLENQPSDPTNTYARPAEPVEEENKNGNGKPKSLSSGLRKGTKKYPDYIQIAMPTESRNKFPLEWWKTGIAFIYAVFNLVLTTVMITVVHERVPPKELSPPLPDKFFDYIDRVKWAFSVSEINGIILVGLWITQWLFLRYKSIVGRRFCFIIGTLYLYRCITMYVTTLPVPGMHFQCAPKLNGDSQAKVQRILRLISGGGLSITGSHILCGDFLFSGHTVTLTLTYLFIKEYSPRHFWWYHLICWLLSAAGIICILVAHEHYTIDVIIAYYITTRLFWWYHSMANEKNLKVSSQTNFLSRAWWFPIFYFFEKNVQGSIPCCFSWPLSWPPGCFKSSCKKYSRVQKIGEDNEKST
Procedure: Add […] SMS2 pure enzyme DDM solution (total protein content 1.5 μg/μL), 1 μL test compound in DMSO solution or blank DMSO solution, 79.7 μL DDM buffer to 1.5 mL Eppendorf tube, vortex 30 seconds, let stand at room temperature for 5 min. Then add 20 μL DDM buffer containing 1 μL DMPC in ethanol (40 mmol/L) and 1 μL C6-NBD-Ceramide in DMSO (1.16 mmol/L). After vortexing for 30 seconds, Incubate for 0.5 h under water bath at 37° C. Then remove, add 200 μL of absolute ethanol, and vortex for 30 seconds. Take out 200 μL of the mixture and store it at 4° C. for high performance liquid chromatography analysis.
as §1
The DMSO stock solution of under tested compound (6 mM) was diluted stepwise into five concentration gradient. 1 μL solution of each concentration was added into the trial system to prepare samples with the method mentioned in the first step of application case 15. The Asm values of the five concentration solution of tested compound were measured (compound D2 is a positive control), and the inhibition rate under the five concentration were calculated and fitted to obtain median inhibitory concentration (IC50). Each compound was measured three parallel groups. SMS2 median inhibitory concentration and SMS1 single inhibitory concentration (50 μM) of Scheme I-1˜I-38, and SMS1 median inhibitory concentration of some compounds are listed below in Table 1.

SMILES	inhibition at 50 µM ([1]; single concentration 50 μM) [%]	IC50 [2] [nM]	Selectivity ratio [2]	IC50 [1] [nM]	SMS1 Inhibition (50 μM) ([1]; single concentration 50 μM) [%]
COc1ccc(COc2cccc3onc(Nc4cccnc4)c23)cc1 [Scheme I-18, 4-((4-Methoxybenzyl)oxy)-N-(pyridin-3-yl)benzo[d]isoxazol-3-amine]	-5				
FC(F)(F)Oc1ccc(COc2cccc3onc(Nc4cccnc4)c23)cc1 [Scheme I-21, 4-((4-Trifluoromethoxybenzyl)oxy)-N-(pyridin-3-yl)benzo[d]-isoxazol-3-amine]	5	> 10000			
N#Cc1ccc(COc2cccc3onc(Nc4cccnc4)c23)cc1 [Scheme I-24, 4-((4-Cyanobenzyl)oxy)-N-(pyridin-3-yl)benzo[d]isoxazol-3-amine]	-18				
Fc1ccccc1COc1cccc2onc(Nc3cccnc3)c12 [Scheme I-4, 4-((2-fluorobenzyl)oxy)-N-(pyridin-3-yl)benzo[d]isoxazol-3-amine]	6	660			
Clc1ccccc1COc1cccc2onc(Nc3cccnc3)c12 [Scheme I-7, 4-((2-chlorobenzyl)oxy)-N-(pyridin-3-yl)benzo[d]isoxazol-3-amine]		270	292	79000	41
Clc1ccc(COc2cccc3onc(Nc4cccnc4)c23)cc1 [Scheme I-9, 4-((4-chlorobenzyl)oxy)-N-(pyridin-3-yl)benzo[d]isoxazol-3-amine]	5	> 10000			
O=C(CN1CCOCC1)Nc1noc2cccc(OCc3cc(F)ccc3Cl)c12 [Scheme I-38, N-(4-((2-chloro-5-fluorobenzyl)oxy)benzo[d]isoxazol-3-yl)-2-morpholinoacetamide]	-1	> 10000			
Cc1cccc(COc2cccc3onc(Nc4cccnc4)c23)c1 [Scheme I-11, 4-((3-methylbenzyl)oxy)-N-(pyridin-3-yl)benzo[d]isoxazol-3-amine]	20	190			
FC(F)(F)c1ccc(COc2cccc3onc(Nc4cccnc4)c23)cc1 [Scheme I-15, 4-((4-Trifluoromethylbenzyl)oxy)-N-(pyridin-3-yl)benzo[d]isoxazole-3-amine]	9	> 10000			
Clc1cccc(Cl)c1COc1cccc2onc(Nc3cccnc3)c12 [Scheme I-26, 4-((2,6-Dichlorobenzyl)oxy)-N-(pyridin-3-yl)benzo[d]isoxazol-3-amine]	25	79	886	70000	
CCN(CC)CC(=O)Nc1noc2cccc(OCc3cc(F)ccc3Cl)c12 [Scheme I-35, N-(4-((2-chloro-5-fluorobenzyl)oxy)benzo[d]isoxazol-3-yl)-2-(diethylamino) acetamide]	11	> 10000			
Clc1cccc(COc2cccc3onc(Nc4cccnc4)c23)c1 [Scheme I-8, 4-((3-chlorobenzyl)oxy)-N-(pyridin-3-yl)benzo[d]isoxazol-3-amine]	44	94	840	79000	
CCc1ccccc1COc1cccc2onc(Nc3cccnc3)c12 [Scheme I-1, 4-((2-ethylbenzyl)oxy)-N-(pyridin-3-yl)benzo[d]isoxazol-3-amine]	65	117	342	40000	
N#Cc1cccc(COc2cccc3onc(Nc4cccnc4)c23)c1 [Scheme I-23, 4-((3-Cyanobenzyl)oxy)-N-(pyridin-3-yl)benzo[d]isoxazol-3-amine]	8	945			
Fc1ccc(COc2cccc3onc(Nc4cccnc4)c23)cc1 [Scheme I-6, 4-((4-fluorobenzyl)oxy)-N-(pyridin-3-yl)benzo[d]isoxazol-3-amine]	7	1520			
Fc1cccc(COc2cccc3onc(Nc4cccnc4)c23)c1 [Scheme I-5, 4-((3-fluorobenzyl)oxy)-N-(pyridin-3-yl)benzo[d]isoxazol-3-amine]	6	156			
Cn1nc(Nc2cccnc2)c2c(OCc3ccccc3)cccc21 [Scheme I-30, 4-(benzyloxy)-1-methyl-N-(pyridin-3-yl)-1H-indazol-3-amine]	1				
O=C(CN1CCCCC1)Nc1noc2cccc(OCc3cc(F)ccc3Cl)c12 [Scheme I-37, N-(4-((2-chloro-5-fluorobenzyl)oxy)benzo[d]isoxazol-3-yl)-2-(piperidin-1-yl)acetamide]	60	> 10000			
CC(C)(C)OC(=O)N1CCC(CCCOc2cccc3onc(Nc4cccnc4)c23)CC1 [Scheme I-40, Tert-Butyl 4-(3-((3-(pyridin-3-ylamino)benzo[d]isoxazol-4-yl)oxy)propyl)piperidine-1-carboxylate]	9				
Cc1ccccc1COc1cccc2onc(Nc3cccnc3)c12 [Scheme I-10, 4-((2-methylbenzyl)oxy)-N-(pyridin-3-yl)benzo[d]isoxazol-3-amine]	41	498	140	70000	
FC(F)(F)Oc1ccccc1COc1cccc2onc(Nc3cccnc3)c12 [Scheme I-19, 4-((2-Trifluoromethoxybenzyl)oxy)-N-(pyridin-3-yl)benzo[d]-isoxazol-3-amine]	59	107	726	67000	
Cc1cccc(C)c1COc1cccc2onc(Nc3cccnc3)c12 [Scheme I-25, 4-((2,6-Dimethylbenzyl)oxy)-N-(pyridin-3-yl)benzo[d]isoxazol-3-amine]	53	153	307	47000	
COc1ccccc1COc1cccc2onc(Nc3cccnc3)c12 [Scheme I-16, 4-((2-Methoxybenzyl)oxy)-N-(pyridin-3-yl)benzo[d]isoxazol-3-amine]	49	239	201	48000	
Cc1ccc(COc2cccc3onc(Nc4cccnc4)c23)cc1 [Scheme I-12, 4-((4-methylbenzyl)oxy)-N-(pyridin-3-yl)benzo[d]isoxazol-3-amine]	5				
Fc1ccc(Cl)c(COc2cccc3onc(Nc4cncnc4)c23)c1 [Scheme I-33, 4-((2-chloro-5-fluorobenzyl)oxy)-N-(pyrimidin-5-yl)benzo[d]isoxazol-3-amine]	60	860			
CN(c1cccnc1)c1noc2cccc(OCc3c(Cl)cccc3Cl)c12 [Scheme I-28, 4-((2,6-dichlorobenzyl)oxy)-N-methyl-N-(pyridin-3-yl)benzo[d]isoxazol-3-amine]	29				
CN(C)CC(=O)Nc1noc2cccc(OCc3cc(F)ccc3Cl)c12 [Scheme I-34, N-(4-((2-chloro-5-fluorobenzyl)oxy)benzo[d]isoxazol-3-yl)-2-(dimethylamino)acetamide]	3				
c1ccc(COc2cccc3[nH]nc(Nc4cccnc4)c23)cc1 [Scheme I-29, 4-(benzyloxy)-N-(pyridin-3-yl)-1H-indazol-3-amine]	-7				
c1ccc(COc2cccc3ccnc(Nc4cccnc4)c23)cc1 [Scheme I-32, 8-(benzyloxy)-N-(pyridin-3-yl)isoquinolin-1-amine]	18				
